In one experiment the test system is HeLa cells. Briefly: BrdU incorporation cell proliferation assay, HeLa cells. The note with it: 24 hrs, dose-dependent. Format: cell-based. Here is the method:
(§1) HeLa cells were grown in Dulbecco's Modified Eagle's Medium (DMEM) supplemented with fetal calf serum (FCS) and HL60 cells in RPMI 1640 supplemented with 10% FCS. Cells were treated with peptides in culture medium and incubated overnight before harvesting.
The peptides were tested in further experiments for their effect on cell cycle progression and cell viability. For this purpose, the peptides were conjugated at their C-terminus to a cell penetrating HIV-Tat derived peptide (aa 48-60) (Fawell et al. (1994) Proc. Natl. Acad. Sci. USA 91, 664-668).
(§2) HeLa, 3T3, W138 cells were treated with varying concentration of MAP-4-SEQ ID NO:2-TAT and a control peptide MAP-4-SEQ ID NO:39-TAT wherein SEQ ID NO:39 is SEQ ID NO:2 but containing 2 alanine substitutions at positions 1 and 4, i.e. AVRAHF (SEQ ID NO:39) DNA replication was analysed by BrdU incorporation after 24 hours.
(§3) Four tumor cell lines U2OS (osteosarcoma), C33A (cervical carcinoma), HeLa (cervical carcinoma) and E2F4/ras (derived from primary rat embryo fibroblasts) were treated with the branched peptide MAP-4-SEQ ID NO:2-TAT or mutant control peptide MAP-4-SEQ ID NO:39-TAT for 24 hrs. Cell proliferation was measured using the BrDU proliferation assay from Boehringer Mannheim (Cat No. 1 647 229).
For orientation: Uptake of a labelled nucleoside into DNA is a usual measure of proliferation.

Experiment [1] deals with HL60 cells. Briefly: Growth of HL60 cells treated with peptide. Type of experiment: cell-based. Here is the method:
as §1, §2
(§4) Effects became visible after 5-24 hours defending on the concentration of the peptide.

Experiment [2] relates to HL60 cells. Briefly: Apoptosis, staining of HL60 cells with Heochst 33342 propidium iodide. Format: cell-based. The procedure: as §4
In experiment [3] the test system is HL60 cells. Description: Nuclease-laddering assay (DNA laddering) in HL60 cells. Type of experiment: cell-based. Here is the method: Treated cells were collected, washed with PBS, resuspended in lysis buffer (50 mM Tris pH 7.9, 100 mM EDTA, pH 8, 100 mM NaCl, 1% SDS) and 500 μg/ml proteinase K and incubated at 55° C. for 18 h. Cells were then incubated with […] for 1 hour at 37° C., genomic DNA was purified and examined by agarose gel electrophoresis.
as §4

The next experiment has as its system CycA promoter. Description: Transcription from the CycA promoter, HeLa cells transiently transfected with CycA-Luciferase construct. Type of experiment: cell-based. The source says: (§5) This finding is in agreement with the anti-repressor function of E2F in the CycA promoter, (Liu et al, Oncogene (1998), 16, 2957-2963).
A further experiment concerns SV-40 promoter. Description: Transcription from the SV-40 promoter (control), HeLa cells. Type of experiment: cell-based.
Source text: as §5

The next experiment relates to U2OS (osteosarcoma). Description: BrDU proliferation assay, U2OS cells. Type of experiment: cell-based. The conditions noted are these: 24 hrs, dose-dependent. The procedure: as §3
The subject of experiment [4] is C33A (cervical carcinoma). Description: BrDU proliferation assay, C33A cells. Format: cell-based. The conditions noted are these: 24 hrs, dose-dependent. Here is the method: as §3
Experiment [5] relates to E2F4/ras (derived from primary rat embryo fibroblasts). Description: BrDU proliferation assay, E2F4/ras cells. Type of experiment: cell-based. The conditions noted are these: 24 hrs, dose-dependent. Here is the method:
as §3

In experiment [6] the target is T1, recombinant E2F1 N1-His (64-301) with DP1 N2-GST (84-249) (human, UniProt Q01094 64-301; Q14186 84-249).
T1 construct: range 64-301;range 84-249; Both proteins were incubated together at 10 ug/ml in the band shift assay with a 32P-labelled B-myb E2F-site probe; also called recombinant E2F1 and DP1; not shown: His tag from vector pET28b; GST fusion partner
T1 sequence (Q01094 64-301, chain 1 of 2): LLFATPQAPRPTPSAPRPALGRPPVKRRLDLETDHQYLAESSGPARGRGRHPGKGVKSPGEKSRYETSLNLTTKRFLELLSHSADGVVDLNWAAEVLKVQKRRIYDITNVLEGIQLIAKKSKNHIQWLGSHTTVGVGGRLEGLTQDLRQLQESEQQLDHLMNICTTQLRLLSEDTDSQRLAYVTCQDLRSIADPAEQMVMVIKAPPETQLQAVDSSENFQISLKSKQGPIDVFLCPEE
T1 sequence (Q14186 84-249, chain 2 of 2): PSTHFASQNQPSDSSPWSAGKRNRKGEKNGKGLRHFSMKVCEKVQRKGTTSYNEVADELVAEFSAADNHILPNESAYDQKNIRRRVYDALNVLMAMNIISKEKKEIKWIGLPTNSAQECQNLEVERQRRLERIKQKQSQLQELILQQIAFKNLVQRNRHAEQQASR
Description: band shift, recombinant E2F, inhibition of DNA binding.

Experiment [7] deals with E2F in nuclear extracts from F9 embryonal carcinoma cells. Description: band shift with F9 nuclear extract; inhibition of E2F DNA binding.
Experiment [8] concerns the target E2F in HeLa cells (nuclear extracts; endogenous E2F in transfected HeLa cells). Description: band shift with HeLa nuclear extract; inhibition of E2F DNA binding.
In experiment [9] the target is E2F1 overexpressed in stable transfected 3T3 cells (nuclear extract) (UniProt Q01094 1-437, limits assumed). Briefly: band shift, extract of 3T3 cells overexpressing E2F1; inhibition of DNA binding.
E2F1 overexpressed in stable transfected 3T3 cells (nuclear extract), sequence (Q01094 whole entry): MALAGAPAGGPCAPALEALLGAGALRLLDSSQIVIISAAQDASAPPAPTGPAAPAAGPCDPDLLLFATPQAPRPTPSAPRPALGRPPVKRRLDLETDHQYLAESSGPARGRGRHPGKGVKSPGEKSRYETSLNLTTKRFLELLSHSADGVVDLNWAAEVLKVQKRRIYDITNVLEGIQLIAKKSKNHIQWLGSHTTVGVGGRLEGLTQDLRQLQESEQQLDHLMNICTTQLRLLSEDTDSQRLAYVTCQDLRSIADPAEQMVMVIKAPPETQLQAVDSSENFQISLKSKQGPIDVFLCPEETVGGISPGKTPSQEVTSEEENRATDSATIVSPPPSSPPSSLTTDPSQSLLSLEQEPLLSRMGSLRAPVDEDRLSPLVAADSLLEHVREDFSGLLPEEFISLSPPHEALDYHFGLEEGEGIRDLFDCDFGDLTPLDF
Description: (§6) Probes were labelled by filling-in 5' overhanging ends of 4–7 bases. Samples were run on 4% non denaturing polyacrylamide gel in 0.5% TBE at 4° C. Gels were exposed to X-ray films. […] The samples were then incubated for 10 minutes at 30° C. and cooled on ice. ^32P-labelled probe was added, the reaction mixtures were incubated for another 10 minutes at 30° C. and then cooled on ice.
In experiment [10] the target is E2F2 overexpressed in stable transfected 3T3 cells (nuclear extract) (UniProt Q14209 1-437, limits assumed). Description: band shift, extract of 3T3 cells overexpressing E2F2; inhibition of DNA binding.
E2F2 overexpressed in stable transfected 3T3 cells (nuclear extract), sequence (Q14209 whole entry): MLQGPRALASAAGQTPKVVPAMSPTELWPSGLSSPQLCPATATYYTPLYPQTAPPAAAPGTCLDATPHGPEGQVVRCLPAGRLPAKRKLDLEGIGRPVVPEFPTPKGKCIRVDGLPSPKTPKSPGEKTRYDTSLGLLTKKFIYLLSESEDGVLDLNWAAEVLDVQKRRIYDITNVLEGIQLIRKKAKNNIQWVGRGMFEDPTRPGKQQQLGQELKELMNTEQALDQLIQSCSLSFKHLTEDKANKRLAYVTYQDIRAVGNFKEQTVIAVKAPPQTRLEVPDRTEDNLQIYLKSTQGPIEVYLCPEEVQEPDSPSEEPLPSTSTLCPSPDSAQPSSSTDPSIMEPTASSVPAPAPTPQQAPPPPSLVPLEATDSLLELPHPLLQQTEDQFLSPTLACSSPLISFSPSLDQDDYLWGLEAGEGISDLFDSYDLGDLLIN
Description: as §6
Experiment [11] has as its target E2F3 overexpressed in stable transfected 3T3 cells (nuclear extract) (UniProt O00716 1-465, limits assumed). Briefly: band shift, extract of 3T3 cells overexpressing E2F3; inhibition of DNA binding.
Description: as §6
For experiment [12], the target named is E2F4 overexpressed in stable transfected 3T3 cells (nuclear extract) (UniProt Q16254 2-413, limits assumed). Description: band shift, extract of 3T3 cells overexpressing E2F4; inhibition of DNA binding.
E2F4 overexpressed in stable transfected 3T3 cells (nuclear extract), sequence (Q16254 2-413 limits assumed): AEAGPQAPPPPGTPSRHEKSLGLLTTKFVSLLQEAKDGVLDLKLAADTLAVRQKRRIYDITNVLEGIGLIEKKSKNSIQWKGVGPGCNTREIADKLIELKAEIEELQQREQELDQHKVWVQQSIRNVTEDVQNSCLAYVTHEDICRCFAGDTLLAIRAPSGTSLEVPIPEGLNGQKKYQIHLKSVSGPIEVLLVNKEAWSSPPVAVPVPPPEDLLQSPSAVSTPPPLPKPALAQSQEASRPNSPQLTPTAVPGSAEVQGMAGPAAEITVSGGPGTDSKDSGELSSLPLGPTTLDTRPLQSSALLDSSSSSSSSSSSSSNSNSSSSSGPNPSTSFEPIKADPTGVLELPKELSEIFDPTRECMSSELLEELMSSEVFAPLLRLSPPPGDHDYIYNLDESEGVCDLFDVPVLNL
Description: as §6
Experiment [13] has as its target E2F5 overexpressed in stable transfected 3T3 cells (nuclear extract) (UniProt Q15329 1-346, limits assumed). Briefly: band shift, extract of 3T3 cells overexpressing E2F5; inhibition of DNA binding.
Description: as §6
Experiment [14] deals with T1, recombinant E2F1 N1-His (64-301) with …. Description: deletion analysis; inhibition of E2F DNA binding (band shift).
Description: as §6
Experiment [15] shares this target. Description: band shift, recombinant E2F1 and DP1, displacement of 32P B-myb E2F-site probe.
Description: Samples were run on 4% non denaturing polyacrylamide gel in 0.5% TBE at 4° C. Gels were exposed to X-ray films. […] The samples were then incubated for 10 minutes at 30° C. and cooled on ice. ^32P-labelled probe was added, the reaction mixtures were incubated for another 10 minutes at 30° C. and then cooled on ice.
The inhibitory potential of the peptides on E2F function was analysed in band shift assays with recombinant E2F1 and DP1.

For orientation: IC50 means the point on the concentration scale where inhibition reaches its midpoint.

Bridge positions count the residues as written; N and C are the ends. Square brackets hold non-standard residues; d marks the D form. Ends that are not written are not given here. I, II: the chains in the order shown. βAla = NCCC(=O)O

E2F3 overexpressed in stable transfected 3T3 cells (nuclear extract), sequence (O00716 whole entry): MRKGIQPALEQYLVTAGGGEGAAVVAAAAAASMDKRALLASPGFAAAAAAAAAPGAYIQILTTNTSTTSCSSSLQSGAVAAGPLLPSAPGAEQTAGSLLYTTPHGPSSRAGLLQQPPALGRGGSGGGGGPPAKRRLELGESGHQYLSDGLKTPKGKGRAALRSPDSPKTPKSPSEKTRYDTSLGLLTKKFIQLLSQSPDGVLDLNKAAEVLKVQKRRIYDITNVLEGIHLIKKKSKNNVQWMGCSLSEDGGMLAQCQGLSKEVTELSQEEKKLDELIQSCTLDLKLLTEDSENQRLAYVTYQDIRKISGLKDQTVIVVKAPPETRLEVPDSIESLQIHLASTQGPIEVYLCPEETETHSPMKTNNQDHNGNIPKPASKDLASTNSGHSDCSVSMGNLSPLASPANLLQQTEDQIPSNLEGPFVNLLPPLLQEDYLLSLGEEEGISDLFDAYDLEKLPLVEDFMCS
E2F5 overexpressed in stable transfected 3T3 cells (nuclear extract), sequence (Q15329 whole entry): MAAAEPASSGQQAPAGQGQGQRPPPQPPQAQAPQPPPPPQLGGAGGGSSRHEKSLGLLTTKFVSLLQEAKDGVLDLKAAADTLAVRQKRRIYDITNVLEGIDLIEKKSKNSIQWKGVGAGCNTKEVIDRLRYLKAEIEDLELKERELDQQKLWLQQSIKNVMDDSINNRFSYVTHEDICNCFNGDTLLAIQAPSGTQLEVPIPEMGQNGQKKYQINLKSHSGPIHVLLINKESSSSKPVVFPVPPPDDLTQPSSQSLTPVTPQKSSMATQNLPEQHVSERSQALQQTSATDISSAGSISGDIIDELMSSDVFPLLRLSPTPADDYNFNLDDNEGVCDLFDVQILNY

As for “I: WVRWHFGRKKRRQRRRPPQKK[βAla] / II: WVRWHFGRKKRRQRRRPPQK / III: WVRWHFGRKKRRQRRRPPQ / IV: WVRWHFGRKKRRQRRRPPQ (amide I:20-IV:C, I:21-II:C, II:20-III:C) [MAP-4-SEQ ID NO:2-TAT]”, the inhibition of proliferation result (in the experiment with HeLa cells; in the experiment on U2OS (osteosarcoma); in [4]; in experiment [5]) was “inhibited proliferation” in each case. For the same molecule, the “inhibition of cell proliferation / cell growth” value with HL60 cells [1] (HL60 cells, concentrations between 1-5 μM) was “Inhibition of cell proliferation”. The “time after which effects became visible” value with HL60 cells [1] (depending on the concentration of the peptide) was in the range of 5 to 24 h. Further, the “hallmarks of apoptosis after staining” value in the experiment on HL60 cells [2] is “chromatin condensation and nuclear fragmentation”. The DNA laddering entry with HL60 cells [3] is reported as “internucleosomal DNA cleavage”. The “effect on transcription from CycA-Luciferase construct” value in the experiment on CycA promoter is “Inhibition of transcription”. Besides, the “effect on the SV-40 promoter” value with SV-40 promoter is listed as “No effect”.

B1: MAP4-SEQ ID NO:2 (branched molecule consisting of 4 copies of SEQ ID NO:2 linked by MAP, multiple antigen peptide) (peptide)
peptide: WVRWHF
modifications: also: tetravalent MAP core: 4 copies joined by C-terminus to Lys2-Lys-X core
notes: Branched tetravalent peptide on a lysine MAP core
For the molecule B1, the “fold lower IC50 (against the unbranched peptides)” value in [6] was roughly 100 fold. Also, the concentration at which inhibition of E2F-DNA binding was found in [7] and in [8] was 10 to 30 µM in each case. In addition, the IC50 in experiment [9], in experiment [10], in [11], in experiment [12] and in [13] was roughly 30 µM in each case.

B2: SEQ5-7 (3-13) (RILTFRSGSWY) (peptide)
peptide: RILTFRSGSWY
notes: also called core-region consisting of amino acids 3-13
For B2, in experiment [14], the “inhibitory activity relative to SEQ ID NO:5” value was roughly 50%.

B3: peptide SEQ ID NO:4 (IWLSGLSRGVWVSFP) (peptide)
peptide: IWLSGLSRGVWVSFP
notes: Synthetic peptide in the band shift assays
Regarding B3, the binding result in [15] is listed as “binds”.

Values taken from patent publication US6841385B2, “Transcription factor E2F DNA-binding domain inhibitor peptides and their use” (Topotarget UK Limited, priority 1999, dated 2005).
